# From a melting point compilation (Tetko et al.; mined from patent text by program, amines drawn as free bases though some values may be those of a salt)
row,SMILES,melting point
1,OC(Cn1cncn1)(c1ccc(F)cc1F)C(F)(F)C(F)(F)F (stereo not given),95 to 96 °C
2,CC(Oc1ncn(-c2ccc(Br)cc2)n1)C(=O)NC1CC1 (stereo not given),170 to 172 °C
3,O=[N+]([O-])c1ccc(Sc2ccc(Cl)cc2)nc1,134 to 136 °C
4,CC(=O)OCC(=O)NCc1nc(-c2csc(N=C(N)N)n2)cs1,182 to 183 °C
5,Oc1ccc(C2(c3ccc(O)cc3)CCCCCC2)cc1,208 to 209 °C
6,COc1nc(N)nc2c1ncn2C1OC(CO)C(OC(=O)C(C)(C)C)C1O (stereo not given),113 to 115 °C
7,Cc1c(CCCCCCCC(=O)O)cccc1C(=O)c1ccc(Cl)cc1,70 °C
8,N#Cc1ccc2c(c1)C(=C(Cl)Cl)OC(C(Cl)(Cl)Cl)O2 (stereo not given),125 to 126 °C
9,CC(C)(C)c1cc(SCCc2n[nH]c(=O)o2)cc(C(C)(C)C)c1O,86 to 87.5 °C
10,CC(C)C[C@H](NC(=O)OCc1ccccc1)C(=O)N[C@@H](Cc1ccccc1)C(=O)CSCc1ccccc1,86 to 87 °C
11,COC(=O)c1cc2cc(OC)c(OC)cc2cc1C(=O)O,181 to 183 °C
12,O=C(O)c1cccc2nc3n(c12)CCC3,310 to 312 °C
13,COc1cc(C(=O)Oc2ccccc2C(C)=O)cc([N+](=O)[O-])c1OC,108 to 109 °C
14,CCCNCC(O)c1ccc(Br)cc1 (stereo not given),72.5 to 74.5 °C
15,CCCNC(=O)NCCCCCN1CCC(CNC(=O)c2cc(Cl)c(N)cc2OC)CC1,144 to 147 °C
16,CCc1ccc(/C=C/c2cc(OC)c(OC)c(OC)c2)cc1,98 to 100 °C
17,COc1ccc2oc(CC3CCCCC3)c(CC#N)c2c1,73 °C
18,CN(C)C(=O)Oc1cccc2c1CN(Nc1ccncc1)C2,183 to 185 °C
19,COC(=O)Cc1ccc(S(=O)(=O)c2ccc(Cl)cc2)cc1,78 to 80 °C
20,CN(Cc1ccc2nsnc2c1)C1CCN(C(=O)c2ccc(Nc3nccc(Nc4ccc(F)cc4)n3)cc2)CC1,191 to 192 °C
21,CC(=O)OC(COc1ccc(/C=C/C(=O)O)c(Oc2ncc(C(F)(F)F)cc2Cl)c1)COC(C)C (stereo not given),134 to 135 °C

row,SMILES,melting point
1,CCOc1ccc(C2=NN(C(=O)c3cccc([N+](=O)[O-])c3)CCC2)cc1OCC,119 to 120 °C
2,NC(=O)C(=O)c1c2n(c3ccccc13)CCNCC2,214 to 215 °C
3,COc1ccc2c(c1)c(Cc1cc(=O)n(-c3cc(Cl)cc(Cl)c3)[nH]1)c(C)n2C(=O)c1ccc(Cl)cc1,104 to 105 °C
4,Nc1c(Br)cc(Oc2cc(Br)c(N)c(Br)c2)cc1Br,166 to 167 °C
5,Cc1ccc(C(=O)N2CCc3cc(C(=O)NO)ccc3C2)cc1,105 to 108 °C
6,CCC[C@H](NC(=O)[C@H](C)N)C(=O)N[C@@H](C)P(=O)(O)O,268 to 270 °C
7,CCOC(=O)C(=CNc1ccc(Br)cc1)C(=O)OCC,100 to 102 °C
8,CC(C)(C)OC(=O)CN1C(=O)[C@@H](N)CSc2ccccc21,86 to 89 °C
9,CCOC(=O)c1c[nH]c2c(cc(Cl)c3c(=O)c(C(=O)OCC)c[nH]c32)c1=O,285 to 288 °C
10,CCCC[C@H](NC(=O)[C@H](CC(C)C)NC(=O)COc1ccc(Cl)cc1)C(=O)CSCc1ccco1,66 to 67 °C
11,COc1c(-c2cccs2)ccc2c(OC)c(-c3cccs3)ccc12,225 to 228 °C
12,Nc1ccc(OCCn2ccnc2)cc1,91 to 92 °C
13,COC(=O)[C@H](Cc1ccccc1)NC(=O)CCC(=O)[C@H](Cc1ccccc1)NC(=O)c1ccccc1,106 to 109 °C
14,CN(C)C(=O)C(CCO)C1CCc2c1[nH]c1ccccc21 (stereo not given),118 to 120 °C
15,O=CN1CC(CCN2CC=C(c3c[nH]c4cc(Cl)ccc34)CC2)c2ccccc21 (stereo not given),183 to 185 °C
16,CSc1ccc(-c2ccc(S(=O)(=O)CC(CO)N(O)C=O)cc2)cc1 (stereo not given),161 to 162 °C
17,CCOC(=O)Cc1[nH]c(C(=O)OC(C)(C)C)c(CCc2cccc(Cl)c2)c1C(=O)OCC,131 to 132 °C
18,COC(=O)CN(C)c1nc(-c2ccc(Br)cc2)cs1,86 °C
19,CCCCCC1(C(=O)O)CC2=C(C1)C(C)(C)CCC2(C)C,57 to 58 °C
20,ClCCN(CCCl)CCCCOc1cccc(Nc2c3ccccc3nc3ccccc23)c1,126 to 127 °C
21,Clc1ccc(-c2[nH]c3c(Cl)cc(Cl)cc3c2Cl)cc1,148 to 149 °C

# Continued, values first:
row,melting point,SMILES
1,130 to 132 °C,Cc1c(NC(=O)CC(CSC(=O)COc2ccccc2)c2ccccc2)cccc1C(=O)O (stereo not given)
2,139 to 140 °C,COc1cc(C)c(C)cc1NC(=O)N1CCN(c2cc(-c3ccccc3)ccc2OC)CC1
3,58 to 60 °C,C[Si](C)(C)CCOC(=O)CN1C(=O)[C@@H](N2C(=O)c3ccccc3C2=O)CSC1c1ccccc1 (stereo not given in full)
4,196 °C,Cc1ccc(S(=O)(=O)N2CC3=C(C2)C(Cc2ccccc2)NCC3)cc1 (stereo not given)
5,86 to 88 °C,O=C(O)COCCCCSc1cnc(-c2ccccc2)c(-c2ccccc2)n1
6,91 to 92 °C,CCn1c(=O)cc(C)c2cc(C(O)(C(F)(F)F)C(F)(F)F)ccc21
7,240 to 242 °C,CCOC(=O)c1cc(=O)c2c(ccc3c4ccccc4c(=O)oc32)o1
8,299 °C,O=C(O)c1cnc(-c2ccc(OCc3ccccc3)cc2)nc1
9,128 °C,C[C@](N)(CO)CCc1ccc2oc(-c3ccccc3)nc2c1
10,218 °C,Cc1cccc(C)c1Oc1ccc2ccc(N)nc2n1
11,120 to 121 °C,CC(COc1c(-c2ccccc2)c(=O)oc2c(-c3ccccc3)cccc12)CN1CCOCC1 (stereo not given)
12,164 to 167 °C,O=C(O)c1ccccc1NCCC=C1c2ccccc2CCc2ccccc21
13,154 to 156 °C,CCCN(c1cccc(-c2ccnc3c([N+](=O)[O-])cnn23)c1)S(=O)(=O)c1ccccc1
14,205 to 206 °C,NC1=C(c2cccc(C(F)(F)F)c2)C(=O)C(c2ccccc2)C1 (stereo not given)
15,53 to 55 °C,CCOC(=O)CSc1nc(-c2ccccc2)c(-c2ccccc2)o1
16,165 to 166 °C,CS(=O)(=O)c1ccc(-c2cnn(CC(F)(F)F)c(=O)c2-c2ccc(F)c(Cl)c2)cc1
17,148 °C,COC(=O)C1(NC(=O)Cc2cc(-c3ccc(Cl)cc3)ccc2Cl)CCCC(C(F)(F)F)C1 (stereo not given)
18,191 to 192 °C,O=C(O)c1cc(-c2ccccc2F)ns1
19,> 260 °C,COc1ccc(F)c(-n2c(=O)[nH]c3c(C(N)=O)nc(-c4cccc(O)c4)nc32)c1
20,135 to 136 °C,O=C(c1c(Cl)cccc1Cl)n1cnc(-c2ccccc2)c1
21,206 °C,FC(F)(F)c1cc(-c2ccc(Cl)cc2)nc2c(-c3cccnc3)ncn12
22,115 to 117 °C,CC(C(=O)Oc1cc(=O)n(-c2cccc(OC(F)(F)F)c2)c2ncccc12)c1ccccc1 (stereo not given)
23,104 to 106 °C,CC=C(C(=O)OC(c1ccccc1)c1ccccc1)N1C(=O)[C@@H]2N=C(Cc3ccccc3)O[C@@H]21
24,100 to 101 °C,COC(=O)Cc1cc(Br)ccc1OCc1ccc(OCc2nc(-c3ccccc3)oc2C)cc1
25,137 to 142 °C,CSC1C(=O)Nc2ccc(Oc3cc(F)c(C(F)(F)F)c(Cl)c3)cc21 (stereo not given)
26,84 to 86 °C,Cc1cc(Oc2cccc(C(F)(F)F)c2)nn1C(=O)Nc1ccccc1Cl
27,208 to 210 °C,CC(C)c1c(CO)c(-c2ccc(F)cc2)nc2ccccc12
28,116 to 117 °C,COc1ccc(SCc2ccccc2)c(Cl)c1Cl
